pEC50: −log10 of the molar value.

Data on 29 molecules can be found in US9511058B2, “Methods for using carboxamide, sulfonamide and amine compounds” (Rigel Pharmaceuticals, Inc., priority 2010, dated 2016).

The target of this assay is AMPK. The experiment in a line: AMPK activation, enzyme-linked immunosorbent assay. The class given is biochemical. Particulars: compounds of Table 2 (Table 7).
On to `O=C(NC1CCN(Cc2cccnc2)CC1)c1ccc2[nH]c3c(c2c1)CN(Cc1ccc(F)cc1)CC3` [2-8, 2-(4-fluorobenzyl)-N-(1-(pyridin-3-ylmethyl)piperidin-4-yl)-2,3,4,5-tetrahydro-1H-pyrido[4,3-b]indole-8-carboxamide], for which the pEC50 is 5.00 to 5.30.
In the case of `N#Cc1ccc(CN2CCC(NC(=O)c3ccc4[nH]c5c(c4c3)CN(Cc3ccc(F)cc3)CC5)CC2)cc1` [2-9, N-(1-(4-cyanobenzyl)piperidin-4-yl)-2-(4-fluorobenzyl)-2,3,4,5-tetrahydro-1H-pyrido[4,3-b]indole-8-carboxamide], the pEC50 is over 6.30.
The figure for `O=C(NC1CCN(Cc2ccc(C(F)(F)F)cc2)CC1)c1ccc2[nH]c3c(c2c1)CN(Cc1ccc(F)cc1)CC3` [2-10, N-(1-(4-trifluoro-methylbenzyl)piperidin-4-yl)-2-(4-fluorobenzyl)-2,3,4,5-tetrahydro-1H-pyrido[4,3-b] indole-8-carboxamide] is 6.00 to 6.30.
For the molecule `O=C(NC1CCN(Cc2cccnc2)CC1)c1ccc2[nH]c3c(c2c1)CN(Cc1ccc(C(F)(F)F)cc1)CC3` [2-11, N-(1-(pyridin-3-ylmethyl)piperidin-4-yl)-2-(4-(trifluoromethyl)benzyl)-2,3,4,5-tetrahydro-1H-pyrido [4,3-b]indole-8-carboxamide], the pEC50 is over 6.30.
`N#Cc1ccc(CN2CCC(NC(=O)c3ccc4[nH]c5c(c4c3)CN(Cc3ccc(C(F)(F)F)cc3)CC5)CC2)cc1` [2-12, N-(1-(4-cyanobenzyl)piperidin-4-yl)-2-(4-(trifluoromethyl)benzyl)-2,3,4,5-tetrahydro-1H-pyrido [4,3-b]indole-8-carboxamide]: the pEC50 was over 6.30.
With `O=C(NC1CCN(Cc2ccc(C(F)(F)F)cc2)CC1)c1ccc2[nH]c3c(c2c1)CN(Cc1ccc(C(F)(F)F)cc1)CC3` [2-13, N-(1-(4-trifluoromethyl-benzyl)piperidin-4-yl)-2-(4-(trifluoro-methyl)benzyl)-2,3,4,5-tetrahydro-1H-pyrido[4,3-b]indole-8-carboxamide], the negative-log EC50 (pEC50) is over 6.30.
Molecule `O=C(NC1CCN(CCc2ccccc2)CC1)c1ccc2[nH]c3c(c2c1)CN(Cc1ccc(C(F)(F)F)cc1)CC3` [2-14, N-(1-phenethyl-piperidin-4-yl)-2-(4-(trifluoromethyl)benzyl)-2,3,4,5-tetrahydro-1H-pyrido[4,3-b]indole-8-carboxamide] gave a pEC50 of over 6.30.
`O=C(NC1CCN(c2ccc(F)cc2)CC1)c1ccc2[nH]c3c(c2c1)CN(Cc1ccc(C(F)(F)F)cc1)CC3` [2-15, N-(1-(4-fluorophenyl)piperidin-4-yl)-2-(4-(trifluoromethyl)benzyl)-2,3,4,5-tetrahydro-1H-pyrido[4,3-b]indole-8-carboxamide] had a pEC50 of over 6.30.
With `Cn1c2c(c3cc(C(=O)NC4CCN(Cc5ccc(C#N)cc5)CC4)ccc31)CN(Cc1ccc(C(F)(F)F)cc1)CC2` [2-16] the figure was over 6.30.
With `Cn1c2c(c3cc(C(=O)NC4CCN(Cc5ccc(C(F)(F)F)cc5)CC4)ccc31)CN(Cc1ccc(C(F)(F)F)cc1)CC2` [2-17, N-(1-(4-trifluoro-methylbenzyl)piperidin-4-yl)-5-methyl-2-(4-(trifluoromethyl)benzyl)-2,3,4,5-tetrahydro-1H-pyrido[4,3-b]indole-8-carboxamide], the pEC50 was 6.00 to 6.30.
Molecule `Cn1c2c(c3cc(C(=O)NC4CCN(Cc5cccnc5)CC4)ccc31)CN(Cc1ccc(C(F)(F)F)cc1)CC2` [2-18, 5-methyl-N-(1-(pyridin-3-ylmethyl)piperidin-4-yl)-2-(4-(trifluoromethyl)benzyl)-2,3,4,5-tetrahydro-1H-pyrido[4,3-b]indole-8-carboxamide] had a pEC50 of 5.30 to 6.00.
In the case of `O=C(NC1CCN(Cc2ccccc2)CC1)c1ccc2[nH]c3c(c2c1)CN(S(=O)(=O)c1ccc(C(F)(F)F)cc1)CC3` [2-19, N-(1-benzylpiperidin-4-yl)-2-(4-(trifluoromethyl)phenylsulfonyl)-2,3,4,5 - tetrahydro-1H-pyrido[4,3-b]indole-8-carboxamide], the pEC50 is under 4.00.
`CC(=O)n1c2c(c3cc(C(=O)NC4CCN(Cc5cccnc5)CC4)ccc31)CN(Cc1ccc(C(F)(F)F)cc1)CC2` [2-20, 5-acetyl-N-(1-(pyridin-3-ylmethyl)piperidin-4-yl)-2-(4-(trifluoromethyl)benzyl)-2,3,4,5-tetrahydro-1H-pyrido[4,3-b]indole-8-carboxamide] had a pEC50 of 5.30 to 6.00.
The figure for `N#Cc1ccc(S(=O)(=O)N2CCC(NC(=O)c3ccc4[nH]c5c(c4c3)CN(Cc3ccc(C(F)(F)F)cc3)CC5)CC2)cc1` [2-21, N-(1-(4-cyanophenyl-sulfonyl)piperidin-4-yl)-2-(4-(trifluoro-methyl)benzyl)-2,3,4,5-tetrahydro-1H-pyrido[4,3-b]indole-8-carboxamide] is 6.00 to 6.30.
As to `O=C(NC1CCN(S(=O)(=O)c2cccnc2)CC1)c1ccc2[nH]c3c(c2c1)CN(Cc1ccc(C(F)(F)F)cc1)CC3` [2-22, N-(1-(pyridin-3-ylsulfonyl)piperidin-4-yl)-2-(4-(trifluoromethyl)benzyl)-2,3,4,5-tetrahydro-1H-pyrido[4,3-b]indole-8-carboxamide], the pEC50 is 6.00 to 6.30.
`O=C(NC1CCN(S(=O)(=O)c2ccc(C(F)(F)F)cc2)CC1)c1ccc2[nH]c3c(c2c1)CN(Cc1ccc(C(F)(F)F)cc1)CC3` [2-23, 2-(4-(trifluoromethyl)benzyl)-N-(1-(4-(trifluoromethyl)phenylsulfonyl)piperidin-4-yl)-2,3,4,5-tetrahydro-1H-pyrido[4,3-b]indole-8-carboxamide] had a pEC50 of 5.30 to 6.00.
With `N#Cc1ccc(CN2CCC(NC(=O)c3ccc4[nH]c5c(c4c3)CN(S(=O)(=O)c3ccc(C(F)(F)F)cc3)CC5)CC2)cc1` [2-24, N-(1-(4-cyanobenzyl)piperidin-4-yl)-2-(4-(trifluoromethyl)phenylsulfonyl)-2,3,4,5-tetrahydro-1H-pyrido [4,3-b]indole-8-carboxamide] the figure was 5.30 to 6.00.
With `N#Cc1ccc(CN2CCC(NC(=O)c3ccc4[nH]c5c(c4c3)CN(S(=O)(=O)c3ccc(C#N)cc3)CC5)CC2)cc1` [2-25, N-(1-(4-cyanobenzyl)piperidin-4-yl)-2-(4-cyanophenylsulfonyl)-2,3,4,5-tetrahydro-1H-pyrido[4,3-b] indole-8-carboxamide] the figure was 4.30 to 5.00; with `N#Cc1ccc(CN2CCC(NC(=O)c3ccc4[nH]c5c(c4c3)CN(S(=O)(=O)c3cccnc3)CC5)CC2)cc1` [2-26, N-(1-(4-cyanobenzyl)piperidin-4-yl)-2-(pyridin-3-ylsulfonyl)-2,3,4,5-tetrahydro-1H-pyrido[4,3-b] indole-8-carboxamide], 4.30 to 5.00.
With `N#Cc1ccc(NC(=O)N2CCC(NC(=O)c3ccc4[nH]c5c(c4c3)CN(Cc3ccc(C(F)(F)F)cc3)CC5)CC2)cc1` [2-27, N-(1-(4-cyanophenyl-carbamoyl)piperidin-4-yl)-2-(4-(trifluoromethyl)benzyl)-2,3,4,5-tetrahydro-1H-pyrido [4,3-b]indole-8-carboxamide] the figure was 5.30 to 6.00.
On to `O=C(NC1CCN(S(=O)(=O)c2ccc(F)cc2)CC1)c1ccc2[nH]c3c(c2c1)CN(Cc1ccc(C(F)(F)F)cc1)CC3` [2-28, N-(1-(4-fluorophenyl-sulfonyl)piperidin-4-yl)-2-(4-(trifluoro-methyl)benzyl)-2,3,4,5-tetrahydro-1H-pyrido [4,3-b]indole-8-carboxamide], for which the pEC50 is 5.30 to 6.00.
In the case of `N#Cc1cccc(S(=O)(=O)N2CCC(NC(=O)c3ccc4[nH]c5c(c4c3)CN(Cc3ccc(C(F)(F)F)cc3)CC5)CC2)c1` [2-29, N-(1-(3-cyanophenyl-sulfonyl)piperidin-4-yl)-2-(4-(trifluoro-methyl)benzyl)-2,3,4,5-tetrahydro-1H-pyrido[4,3-b]indole-8-carboxamide], the pEC50 is 5.30 to 6.00.
With `O=C(NC1CCN(S(=O)(=O)c2cccc(C(F)(F)F)c2)CC1)c1ccc2[nH]c3c(c2c1)CN(Cc1ccc(C(F)(F)F)cc1)CC3` [2-30, 2-(4-(trifluoromethyl)benzyl)-N-(1-(3-(trifluoromethyl)phenylsulfonyl)piperidin-4-yl)-2,3,4,5-tetrahydro-1H-pyrido[4,3-b]indole-8-carboxamide] the figure was 5.30 to 6.00.
The figure for `O=C(NC1CCN(S(=O)(=O)c2ccc(Cl)cc2)CC1)c1ccc2[nH]c3c(c2c1)CN(Cc1ccc(C(F)(F)F)cc1)CC3` [2-32, N-(1-(4-chlorophenyl-sulfonyl)piperidin-4-yl)-2-(4-(trifluoro-methyl)benzyl)-2,3,4,5-tetrahydro-1H-pyrido [4,3-b]indole-8-carboxamide] is 5.30 to 6.00.
In the case of `O=C(NC1CCN(C(=O)Nc2ccc(C(F)(F)F)cc2)CC1)c1ccc2[nH]c3c(c2c1)CN(Cc1ccc(C(F)(F)F)cc1)CC3` [2-33, 2-(4-(trifluoromethyl)benzyl)-N-(1-(4-(trifluoromethyl)phenylcarbamoyl)piperidin-4-yl)-2,3,4,5-tetrahydro-1H-pyrido[4,3-b]indole-8-carboxamide], the pEC50 is 5.30 to 6.00.
Molecule `O=C(NC1CCN(S(=O)(=O)c2ccc(F)cc2)CC1)c1ccc2[nH]c3c(c2c1)CN(c1ccc(F)cc1)CC3` [2-35, 2-(4-fluorophenyl)-N-(1-(4-fluorophenylsulfonyl)piperidin-4-yl)-2,3,4,5-tetrahydro-1H-pyrido[4,3-b]indole-8-carboxamide] had a pEC50 of 4.30 to 5.00.
With `O=C(NC1CCN(Cc2cccnc2)CC1)c1ccc2[nH]c3c(c2c1)CN(c1ccc(F)cc1)CC3` [2-36, 2-(4-fluorophenyl)-N-(1-(pyridin-3-ylmethyl)piperidin-4-yl)-2,3,4,5-tetrahydro-1H-pyrido [4,3-b]indole-8-carboxamide], the pEC50 was under 4.00.
The molecule `O=C(NC1CCN(Cc2ccc(C(F)(F)F)cc2)CC1)c1ccc2[nH]c3c(c2c1)CN(c1ccc(F)cc1)CC3` [2-37, 2-(4-fluorophenyl)-N-(1-(4-(trifluoromethyl)benzyl)piperidin-4-yl)-2,3,4,5-tetrahydro-1H-pyrido[4,3-b]indole-8-carboxamide] had a pEC50 of 5.00 to 5.30.
The molecule `CC(C)(C)OC(=O)N1CCC(NC(=O)c2ccc3[nH]c4c(c3c2)CN(c2ccc(F)cc2)CC4)CC1` [2-38, tert-butyl 4-(2-(4-fluorophenyl)-2,3,4,5-tetrahydro-1H-pyrido [4,3-b]indole-8-carboxamido)piperidine-1-carboxylate] showed a pEC50 of 4.30 to 5.00.

The term pEC50 denotes −log10 of the EC50, conventionally taken in molar units. Low values mean a large EC50, high ones a small EC50.
